According to patent US20230271950A1, “ANTIBACTERIAL PICOLINAMIDE COMPOUNDS” (University of Notre Dame Du Lac, priority 2020, published 2023):
Values after ≈ are worked out from the molar mass of the structure shown. Like-named read-outs stand apart in the source and are kept apart here.

Tests used:
C. difficile = assay: MIC by broth microdilution against C. difficile strains; format: cell-based, Clostridioides difficile; conditions: for MIC: Clostridioides difficile
MRSA (NRS70, NRS119) = assay: MIC against MRSA strains; format: cell-based, Staphylococcus aureus; conditions: Staphylococcus aureus
S. aureus ATCC29213 = assay: MIC against MSSA; format: cell-based, Staphylococcus aureus; conditions: Staphylococcus aureus; MSSA ATCC 29213; Table 10, unit inferred; read-out: Activity (MIC) against S. aureus
Fusobacterium nucleatum = assay: MIC against gut bacterium Fusobacterium nucleatum; format: cell-based; conditions: Fusobacterium nucleatum, Fusobacterium nucleatum strain HM-992; Table 7; read-out: MIC
Corynebacterium spp. = assay: MIC against gut bacterium Corynebacterium spp.; format: cell-based; conditions: Corynebacterium, Corynebacterium spp. strain HM-784; Table 7
Bacteroides fragilis = assay: MIC against gut bacterium Bacteroides fragilis; format: cell-based; conditions: Bacteroides fragilis, Bacteroides fragilis strain HM-709; Table 7; read-out: MIC
E. faecium NCTC7171 = assay: MIC against E. faecium; format: cell-based, Enterococcus faecium; conditions: Enterococcus faecium, NCTC7171; E. faecium NCTC 7171; Table 10, unit inferred; read-out: Activity (MIC) against E. faecium
Eubacterium sp. = assay: MIC against gut bacterium Eubacterium sp.; format: cell-based; conditions: Eubacterium, Eubacterium sp. strain HM-178; Table 7; read-out: MIC
Bifidobacterium longum = assay: MIC against gut bacterium Bifidobacterium longum; format: cell-based; conditions: Bifidobacterium longum, Bifidobacterium longum strain HM-846; Table 7; read-out: MIC
Veillonella sp. HM-49 = assay: MIC against gut bacterium Veillonella sp.; format: cell-based; conditions: SP.HM49; Veillonella sp. strain HM-49; Table 7; read-out: MIC
Lactobacillus reuteri = assay: MIC against gut bacterium Lactobacillus reuteri; format: cell-based; conditions: Limosilactobacillus reuteri; Lactobacillus reuteri strain HM-102; Table 7; read-out: MIC
Lactobacillus gasseri = assay: MIC against gut bacterium Lactobacillus gasseri; format: cell-based; conditions: Lactobacillus gasseri strain HM-644; Table 7; read-out: MIC
[1] = ATCC43255, ATCC 43255, ribotype 087, Table 3 (SAR^2 and SAR^3), read-out: MIC C. difficile
[2] = ATCC43255, C. difficile ATCC43255, Table 7, read-out: MIC
[3] = ATCC43255, C. difficile ATCC 43255, read-out: MIC against C. difficile
[4] = ATCC43598, C. difficile ATCC43598, Table 7, read-out: MIC
[5] = BAA1801, C. difficile BAA-1801, Table 7, read-out: MIC
[6] = BAA1803, C. difficile BAA-1803, Table 7, read-out: MIC
[7] = BAA1804, C. difficile BAA-1804, Table 7, read-out: MIC
[8] = BAA1812, C. difficile BAA-1812, Table 7, read-out: MIC
[9] = BAA1814, C. difficile BAA-1814, Table 7, read-out: MIC
[10] = BAA1870, C. difficile BAA-1870, Table 7, read-out: MIC
[11] = C. difficile 23691 (VR, vancomycin-resistant), Table 7, read-out: MIC
[12] = C. difficile 23828 (FR, fidaxomicin-resistant), Table 7, read-out: MIC
[13] = C. difficile 24531 (VR, vancomycin-resistant), Table 7, read-out: MIC
[14] = C. difficile 24923 (VR, vancomycin-resistant), Table 7, read-out: MIC
[15] = C. difficile 26675 (MR, metronidazole-resistant), Table 7, read-out: MIC
[16] = C. difficile 27081 (FR, fidaxomicin-resistant), Table 7, read-out: MIC
[17] = C. difficile 27173 (MR, metronidazole-resistant), Table 7, read-out: MIC
[18] = C. difficile NR49292, Table 7, read-out: MIC
[19] = C. difficile NR49294, Table 7, read-out: MIC
[20] = C. difficile NR49302, Table 7, read-out: MIC
[21] = C. difficile NR49305, Table 7, read-out: MIC
[22] = C. difficile NR49310, Table 7, read-out: MIC
[23] = C. difficile NR49318, Table 7, read-out: MIC
[24] = C. difficile, Table 8, read-out: MIC
[25] = MIC MRSA NRS70/MIC C. difficile ATCC43255, Table 7
[26] = MIC MRSA/MIC C. difficile, Table 3
[27] = MRSA NRS70, Table 7, read-out: MIC
[28] = NRS70 strain, Table 3 (SAR^2 and SAR^3), read-out: MIC MRSA

O=C(Nc1ncco1)c1cc(-c2ccc(Cl)c(Cl)c2)ccn1 [Compound 87, 4-(3,4-Dichlorophenyl)-N-(oxazol-2-yl)picolinamide]
MIC (C. difficile; [1]): 0.125 µg/mL (≈ 0.374 µM)
MIC (C. difficile; [2]): 0.125 µg/mL (≈ 0.374 µM)
MIC (C. difficile; [3]): 0.125 µg/mL (≈ 0.374 µM)
MIC (C. difficile; [4]): 0.25 µg/mL (≈ 0.748 µM)
MIC (C. difficile; [5]): 0.25 µg/mL (≈ 0.748 µM)
MIC (C. difficile; [6]): 0.25 µg/mL (≈ 0.748 µM)
MIC (C. difficile; [7]): 0.125 µg/mL (≈ 0.374 µM)
MIC (C. difficile; [8]): 0.25 µg/mL (≈ 0.748 µM)
MIC (C. difficile; [9]): 0.125 µg/mL (≈ 0.374 µM)
MIC (C. difficile; [10]): 0.25 µg/mL (≈ 0.748 µM)
MIC (C. difficile; [11]): 0.5 µg/mL (≈ 1.5 µM)
MIC (C. difficile; [12]): 0.25 µg/mL (≈ 0.748 µM)
MIC (C. difficile; [13]): 0.25 µg/mL (≈ 0.748 µM)
MIC (C. difficile; [14]): 0.5 µg/mL (≈ 1.5 µM)
MIC (C. difficile; [15]): 0.5 µg/mL (≈ 1.5 µM)
MIC (C. difficile; [16]): 0.5 µg/mL (≈ 1.5 µM)
MIC (C. difficile; [17]): 0.5 µg/mL (≈ 1.5 µM)
MIC (C. difficile; [18]): 0.25 µg/mL (≈ 0.748 µM)
MIC (C. difficile; [19]): 0.25 µg/mL (≈ 0.748 µM)
MIC (C. difficile; [20]): 0.25 µg/mL (≈ 0.748 µM)
MIC (C. difficile; [21]): 0.25 µg/mL (≈ 0.748 µM)
MIC (C. difficile; [22]): 0.125 µg/mL (≈ 0.374 µM)
MIC (C. difficile; [23]): 0.25 µg/mL (≈ 0.748 µM)
MIC (C. difficile; [24]): 0.125 µg/mL (≈ 0.374 µM)
Selectivity (C. difficile; [25]): 1024
Selectivity (C. difficile; [26]): 1024
Selectivity (C. difficile; Table 8): 1024
MIC (MRSA (NRS70, NRS119); [27]): 128 µg/mL (≈ 383 µM)
MIC (MRSA (NRS70, NRS119); MRSA strain NRS70, read-out: MIC against MRSA): 128 µg/mL (≈ 383 µM)
MIC (MRSA (NRS70, NRS119); [28]): 128 µg/mL (≈ 383 µM)
MIC (S. aureus ATCC29213): ≥ 128 µg/mL
MIC (Fusobacterium nucleatum): 8 µg/mL (≈ 23.9 µM)
MIC (Corynebacterium spp.): 16 µg/mL (≈ 47.9 µM)
MIC (Bacteroides fragilis): 4 µg/mL (≈ 12 µM)
MIC (E. faecium NCTC7171): ≥ 128 µg/mL
MIC (Eubacterium sp.): 8 µg/mL (≈ 23.9 µM)
MIC (Bifidobacterium longum): > 16 µg/mL
MIC (Veillonella sp. HM-49): 16 µg/mL (≈ 47.9 µM)
MIC (Lactobacillus reuteri): 4 µg/mL (≈ 12 µM)
MIC (Lactobacillus gasseri): > 16 µg/mL

O=C(Nc1ncco1)c1ccnc(-c2ccc(Cl)c(Cl)c2)c1 [Compound 4, 2-(3,4-Dichlorophenyl)-N-(oxazol-2-yl)isonicotinamide]
MIC (C. difficile; ATCC43255, ATCC 43255, ribotype 087, Table 2 (SAR^1), read-out: MIC C. difficile): 0.25 µg/mL (≈ 0.748 µM)
MIC (C. difficile; [1]): 0.25 µg/mL (≈ 0.748 µM)
MIC (C. difficile; [2]): 0.25 µg/mL (≈ 0.748 µM)
MIC (C. difficile; [3]): 0.25 µg/mL (≈ 0.748 µM)
MIC (C. difficile; [4]): 0.0625 µg/mL (≈ 0.187 µM)
MIC (C. difficile; [5]): 0.25 µg/mL (≈ 0.748 µM)
MIC (C. difficile; [6]): 0.5 µg/mL (≈ 1.5 µM)
MIC (C. difficile; [7]): 0.0625 µg/mL (≈ 0.187 µM)
MIC (C. difficile; [8]): 0.125 µg/mL (≈ 0.374 µM)
MIC (C. difficile; [9]): 0.125 µg/mL (≈ 0.374 µM)
MIC (C. difficile; [10]): ≤ 0.25 µg/mL
MIC (C. difficile; [11]): 0.25 µg/mL (≈ 0.748 µM)
MIC (C. difficile; [12]): 0.125 µg/mL (≈ 0.374 µM)
MIC (C. difficile; [13]): 0.125 µg/mL (≈ 0.374 µM)
MIC (C. difficile; [14]): 0.125 µg/mL (≈ 0.374 µM)
MIC (C. difficile; [15]): 0.25 µg/mL (≈ 0.748 µM)
MIC (C. difficile; [16]): 0.125 µg/mL (≈ 0.374 µM)
MIC (C. difficile; [17]): 0.125 µg/mL (≈ 0.374 µM)
MIC (C. difficile; [18]): 0.125 µg/mL (≈ 0.374 µM)
MIC (C. difficile; [19]): 0.0625 µg/mL (≈ 0.187 µM)
MIC (C. difficile; [20]): 0.0625 µg/mL (≈ 0.187 µM)
MIC (C. difficile; [21]): 0.125 µg/mL (≈ 0.374 µM)
MIC (C. difficile; [22]): 0.0625 µg/mL (≈ 0.187 µM)
MIC (C. difficile; [23]): 0.125 µg/mL (≈ 0.374 µM)
MIC (C. difficile; [24]): 0.25 µg/mL (≈ 0.748 µM)
Selectivity (C. difficile; [25]): 1
Selectivity (C. difficile; [26]): 1
Selectivity (C. difficile; Table 8): 1
MIC (MRSA (NRS70, NRS119); [27]): 0.25 µg/mL (≈ 0.748 µM)
MIC (MRSA (NRS70, NRS119); NRS70 strain, Table 2 (SAR^1), read-out: MIC MRSA): 0.25 µg/mL (≈ 0.748 µM)
MIC (MRSA (NRS70, NRS119); [28]): 0.25 µg/mL (≈ 0.748 µM)
MIC (S. aureus ATCC29213): 0.06 µg/mL (≈ 0.18 µM)
MIC (Fusobacterium nucleatum): 8 µg/mL (≈ 23.9 µM)
MIC (Corynebacterium spp.): 0.5 µg/mL (≈ 1.5 µM)
MIC (Bacteroides fragilis): 1 µg/mL (≈ 2.99 µM)
MIC (E. faecium NCTC7171): 0.06 µg/mL (≈ 0.18 µM)
MIC (Eubacterium sp.): > 16 µg/mL
MIC (Bifidobacterium longum): > 16 µg/mL
MIC (Veillonella sp. HM-49): 4 µg/mL (≈ 12 µM)
MIC (Lactobacillus reuteri): 8 µg/mL (≈ 23.9 µM)
MIC (Lactobacillus gasseri): > 16 µg/mL
